# Patent US8192962B2, “Processes for detecting toxic substances” (Daikin Industries, Ltd., priority 2001, dated 2012)
# Tested on: Stress protein genes
# Assay: DNA chip mRNA expression in yeast, stress protein genes (Table 6)
# Type: cell-based, Saccharomyces cerevisiae S288C
# How it was run: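 Chemical exposure: 2 h, log-phase S. cerevisiae S288C, YPD, 25° C., dose set to inhibit growth without death. Profiling: mRNA labeled by reverse transcription with Cy3- or Cy5-dUTP, hybridized to whole-genome array. Output: fluorescence ratio against untreated culture.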
structure (smiles),measurement,setting,value
"C=CC=O [(14), acrolein]",The level of expressed mRNA in the presence of chemical substance/The level of expressed mRNA in the absence of chemical substance,yeast gene YAL005C,0.4
same,The level of expressed mRNA in the presence of chemical substance/The level of expressed mRNA in the absence of chemical substance,yeast gene YAL015C,1.6
same,The level of expressed mRNA in the presence of chemical substance/The level of expressed mRNA in the absence of chemical substance,yeast gene YBL075C,1.1
same,The level of expressed mRNA in the presence of chemical substance/The level of expressed mRNA in the absence of chemical substance,yeast gene YBL093C,1.0
same,The level of expressed mRNA in the presence of chemical substance/The level of expressed mRNA in the absence of chemical substance,yeast gene YBR044C,0.9
same,The level of expressed mRNA in the presence of chemical substance/The level of expressed mRNA in the absence of chemical substance,yeast gene YBR054W,1.0
same,The level of expressed mRNA in the presence of chemical substance/The level of expressed mRNA in the absence of chemical substance,yeast gene YBR067C,0.7
same,The level of expressed mRNA in the presence of chemical substance/The level of expressed mRNA in the absence of chemical substance,yeast gene YBR072W,5.8
same,The level of expressed mRNA in the presence of chemical substance/The level of expressed mRNA in the absence of chemical substance,yeast gene YBR126C,0.7
same,The level of expressed mRNA in the presence of chemical substance/The level of expressed mRNA in the absence of chemical substance,yeast gene YBR169C,1.1
same,The level of expressed mRNA in the presence of chemical substance/The level of expressed mRNA in the absence of chemical substance,yeast gene YCL035C,2.5
same,The level of expressed mRNA in the presence of chemical substance/The level of expressed mRNA in the absence of chemical substance,yeast gene YCR021C,1.6
same,The level of expressed mRNA in the presence of chemical substance/The level of expressed mRNA in the absence of chemical substance,yeast gene YCR060W,1.7
same,The level of expressed mRNA in the presence of chemical substance/The level of expressed mRNA in the absence of chemical substance,yeast gene YCR083W,2.4
same,The level of expressed mRNA in the presence of chemical substance/The level of expressed mRNA in the absence of chemical substance,yeast gene YDL022W,0.8
same,The level of expressed mRNA in the presence of chemical substance/The level of expressed mRNA in the absence of chemical substance,yeast gene YDL025C,1.7
same,The level of expressed mRNA in the presence of chemical substance/The level of expressed mRNA in the absence of chemical substance,yeast gene YDR033W,1.0
same,The level of expressed mRNA in the presence of chemical substance/The level of expressed mRNA in the absence of chemical substance,yeast gene YDR077W,0.3
same,The level of expressed mRNA in the presence of chemical substance/The level of expressed mRNA in the absence of chemical substance,yeast gene YDR098C,1.5
same,The level of expressed mRNA in the presence of chemical substance/The level of expressed mRNA in the absence of chemical substance,yeast gene YDR155C,1.0
same,The level of expressed mRNA in the presence of chemical substance/The level of expressed mRNA in the absence of chemical substance,yeast gene YDR258C,1.5
same,The level of expressed mRNA in the presence of chemical substance/The level of expressed mRNA in the absence of chemical substance,yeast gene YDR293C,0.8
same,The level of expressed mRNA in the presence of chemical substance/The level of expressed mRNA in the absence of chemical substance,yeast gene YDR436W,1.2
same,The level of expressed mRNA in the presence of chemical substance/The level of expressed mRNA in the absence of chemical substance,yeast gene YDR513W,2.0
same,The level of expressed mRNA in the presence of chemical substance/The level of expressed mRNA in the absence of chemical substance,yeast gene YDR519W,1.3
same,The level of expressed mRNA in the presence of chemical substance/The level of expressed mRNA in the absence of chemical substance,yeast gene YEL030W,0.7
same,The level of expressed mRNA in the presence of chemical substance/The level of expressed mRNA in the absence of chemical substance,yeast gene YEL039C,1.4
same,The level of expressed mRNA in the presence of chemical substance/The level of expressed mRNA in the absence of chemical substance,yeast gene YER042W,5.2
same,The level of expressed mRNA in the presence of chemical substance/The level of expressed mRNA in the absence of chemical substance,yeast gene YER057C,1.4
same,The level of expressed mRNA in the presence of chemical substance/The level of expressed mRNA in the absence of chemical substance,yeast gene YER103W,0.9
same,The level of expressed mRNA in the presence of chemical substance/The level of expressed mRNA in the absence of chemical substance,yeast gene YER125W,0.7
same,The level of expressed mRNA in the presence of chemical substance/The level of expressed mRNA in the absence of chemical substance,yeast gene YFL014W,7.3
same,The level of expressed mRNA in the presence of chemical substance/The level of expressed mRNA in the absence of chemical substance,yeast gene YFL016C,0.8
same,The level of expressed mRNA in the presence of chemical substance/The level of expressed mRNA in the absence of chemical substance,yeast gene YFL020C,1.0
same,The level of expressed mRNA in the presence of chemical substance/The level of expressed mRNA in the absence of chemical substance,yeast gene YFR052W,3.3
same,The level of expressed mRNA in the presence of chemical substance/The level of expressed mRNA in the absence of chemical substance,yeast gene YGL073W,1.2
same,The level of expressed mRNA in the presence of chemical substance/The level of expressed mRNA in the absence of chemical substance,yeast gene YGL115W,1.2
same,The level of expressed mRNA in the presence of chemical substance/The level of expressed mRNA in the absence of chemical substance,yeast gene YGL181W,1.0
same,The level of expressed mRNA in the presence of chemical substance/The level of expressed mRNA in the absence of chemical substance,yeast gene YGR088W,1.3
same,The level of expressed mRNA in the presence of chemical substance/The level of expressed mRNA in the absence of chemical substance,yeast gene YHL028W,1.3
same,The level of expressed mRNA in the presence of chemical substance/The level of expressed mRNA in the absence of chemical substance,yeast gene YHL046C,1.4
same,The level of expressed mRNA in the presence of chemical substance/The level of expressed mRNA in the absence of chemical substance,yeast gene YHR030C,1.1
same,The level of expressed mRNA in the presence of chemical substance/The level of expressed mRNA in the absence of chemical substance,yeast gene YHR057C,1.9
same,The level of expressed mRNA in the presence of chemical substance/The level of expressed mRNA in the absence of chemical substance,yeast gene YHR104W,1.5
same,The level of expressed mRNA in the presence of chemical substance/The level of expressed mRNA in the absence of chemical substance,yeast gene YIL011W,0.5
same,The level of expressed mRNA in the presence of chemical substance/The level of expressed mRNA in the absence of chemical substance,yeast gene YIL033C,0.7
same,The level of expressed mRNA in the presence of chemical substance/The level of expressed mRNA in the absence of chemical substance,yeast gene YIR037W,2.3
same,The level of expressed mRNA in the presence of chemical substance/The level of expressed mRNA in the absence of chemical substance,yeast gene YIR038C,2.5
same,The level of expressed mRNA in the presence of chemical substance/The level of expressed mRNA in the absence of chemical substance,yeast gene YJL128C,0.8
same,The level of expressed mRNA in the presence of chemical substance/The level of expressed mRNA in the absence of chemical substance,yeast gene YJL158C,0.5
same,The level of expressed mRNA in the presence of chemical substance/The level of expressed mRNA in the absence of chemical substance,yeast gene YJL159W,0.6
same,The level of expressed mRNA in the presence of chemical substance/The level of expressed mRNA in the absence of chemical substance,yeast gene YJL165C,0.9
same,The level of expressed mRNA in the presence of chemical substance/The level of expressed mRNA in the absence of chemical substance,yeast gene YJR045C,0.5
same,The level of expressed mRNA in the presence of chemical substance/The level of expressed mRNA in the absence of chemical substance,yeast gene YJR090C,1.0
same,The level of expressed mRNA in the presence of chemical substance/The level of expressed mRNA in the absence of chemical substance,yeast gene YKL161C,1.4
same,The level of expressed mRNA in the presence of chemical substance/The level of expressed mRNA in the absence of chemical substance,yeast gene YKL163W,0.5
same,The level of expressed mRNA in the presence of chemical substance/The level of expressed mRNA in the absence of chemical substance,yeast gene YKL164C,0.3
same,The level of expressed mRNA in the presence of chemical substance/The level of expressed mRNA in the absence of chemical substance,yeast gene YKL210W,0.8
same,The level of expressed mRNA in the presence of chemical substance/The level of expressed mRNA in the absence of chemical substance,yeast gene YKR053C,1.3
same,The level of expressed mRNA in the presence of chemical substance/The level of expressed mRNA in the absence of chemical substance,yeast gene YLL024C,0.4
same,The level of expressed mRNA in the presence of chemical substance/The level of expressed mRNA in the absence of chemical substance,yeast gene YLL026W,0.8
same,The level of expressed mRNA in the presence of chemical substance/The level of expressed mRNA in the absence of chemical substance,yeast gene YLL039C,1.4
same,The level of expressed mRNA in the presence of chemical substance/The level of expressed mRNA in the absence of chemical substance,yeast gene YLL060C,10.6
same,The level of expressed mRNA in the presence of chemical substance/The level of expressed mRNA in the absence of chemical substance,yeast gene YLR006C,1.0
same,The level of expressed mRNA in the presence of chemical substance/The level of expressed mRNA in the absence of chemical substance,yeast gene YLR109W,2.3
same,The level of expressed mRNA in the presence of chemical substance/The level of expressed mRNA in the absence of chemical substance,yeast gene YLR259C,0.8
same,The level of expressed mRNA in the presence of chemical substance/The level of expressed mRNA in the absence of chemical substance,yeast gene YML007W,1.2
same,The level of expressed mRNA in the presence of chemical substance/The level of expressed mRNA in the absence of chemical substance,yeast gene YML070W,1.3
same,The level of expressed mRNA in the presence of chemical substance/The level of expressed mRNA in the absence of chemical substance,yeast gene YMR021C,1.3
same,The level of expressed mRNA in the presence of chemical substance/The level of expressed mRNA in the absence of chemical substance,yeast gene YMR173W,2.3
same,The level of expressed mRNA in the presence of chemical substance/The level of expressed mRNA in the absence of chemical substance,yeast gene YMR186W,0.6
same,The level of expressed mRNA in the presence of chemical substance/The level of expressed mRNA in the absence of chemical substance,yeast gene YNL064C,0.8
same,The level of expressed mRNA in the presence of chemical substance/The level of expressed mRNA in the absence of chemical substance,yeast gene YNL160W,1.3
same,The level of expressed mRNA in the presence of chemical substance/The level of expressed mRNA in the absence of chemical substance,yeast gene YNL241C,1.1
same,The level of expressed mRNA in the presence of chemical substance/The level of expressed mRNA in the absence of chemical substance,yeast gene YNR076W,0.8
same,The level of expressed mRNA in the presence of chemical substance/The level of expressed mRNA in the absence of chemical substance,yeast gene YOL064C,0.9
same,The level of expressed mRNA in the presence of chemical substance/The level of expressed mRNA in the absence of chemical substance,yeast gene YOL161C,0.9
same,The level of expressed mRNA in the presence of chemical substance/The level of expressed mRNA in the absence of chemical substance,yeast gene YOR008C,0.9
same,The level of expressed mRNA in the presence of chemical substance/The level of expressed mRNA in the absence of chemical substance,yeast gene YOR009W,0.7
same,The level of expressed mRNA in the presence of chemical substance/The level of expressed mRNA in the absence of chemical substance,yeast gene YOR010C,0.4
same,The level of expressed mRNA in the presence of chemical substance/The level of expressed mRNA in the absence of chemical substance,yeast gene YOR027W,0.8
same,The level of expressed mRNA in the presence of chemical substance/The level of expressed mRNA in the absence of chemical substance,yeast gene YOR208W,1.3
same,The level of expressed mRNA in the presence of chemical substance/The level of expressed mRNA in the absence of chemical substance,yeast gene YPL059W,1.3
same,The level of expressed mRNA in the presence of chemical substance/The level of expressed mRNA in the absence of chemical substance,yeast gene YPL106C,0.9
same,The level of expressed mRNA in the presence of chemical substance/The level of expressed mRNA in the absence of chemical substance,yeast gene YPL140C,1.1
same,The level of expressed mRNA in the presence of chemical substance/The level of expressed mRNA in the absence of chemical substance,yeast gene YPL194W,1.1
same,The level of expressed mRNA in the presence of chemical substance/The level of expressed mRNA in the absence of chemical substance,yeast gene YPL223C,2.5
same,The level of expressed mRNA in the presence of chemical substance/The level of expressed mRNA in the absence of chemical substance,yeast gene YPL240C,0.7
same,The level of expressed mRNA in the presence of chemical substance/The level of expressed mRNA in the absence of chemical substance,yeast gene YPR005C,1.3
same,The level of expressed mRNA in the presence of chemical substance/The level of expressed mRNA in the absence of chemical substance,yeast gene YPR026W,1.5
